In patent US9493446B2, “Orexin receptor antagonists which are [ortho bi-(hetero-)aryl]-[2-(meta bi-(hetero-)aryl)-pyrrolidin-1-yl]-methanone derivatives” (Actelion Pharmaceuticals Ltd, priority 2012, dated 2016):
Where two headings read alike, the source gives them in different places.

Key:
orexin-1 = orexin-1 (Homo sapiens (Human), UniProt O43613); assay: Intracellular calcium measurement (FLIPR), CHO cells expressing human orexin-1 receptor, 3 nM orexin-A; format: cell-based; conditions: read-out: IC50 OX1
orexin-1, sequence (O43613 whole entry): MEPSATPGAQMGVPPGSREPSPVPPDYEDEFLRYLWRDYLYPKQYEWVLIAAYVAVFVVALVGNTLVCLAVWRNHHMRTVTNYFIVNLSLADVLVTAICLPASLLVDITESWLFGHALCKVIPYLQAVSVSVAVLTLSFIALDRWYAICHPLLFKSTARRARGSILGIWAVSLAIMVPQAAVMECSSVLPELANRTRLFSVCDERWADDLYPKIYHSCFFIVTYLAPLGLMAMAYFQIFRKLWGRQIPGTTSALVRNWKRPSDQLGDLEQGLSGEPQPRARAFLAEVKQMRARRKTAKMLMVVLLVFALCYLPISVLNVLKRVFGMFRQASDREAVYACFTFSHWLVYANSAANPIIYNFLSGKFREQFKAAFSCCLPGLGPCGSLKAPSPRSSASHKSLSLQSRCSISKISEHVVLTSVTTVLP
Procedure, shortened: (§1)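 Antagonist is added 120 min before agonist. Fluo-4 AM-loaded CHO cells carry human orexin-1 or orexin-2 receptor, and calcium is read by FLIPR.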

human orexin-2 receptor = human orexin-2 receptor (Homo sapiens (Human), UniProt O43614); assay: Intracellular calcium measurement (FLIPR), CHO cells expressing human orexin-2 receptor, 3 nM orexin-A; format: cell-based; conditions: read-out: IC50 OX2
human orexin-2 receptor, sequence (O43614 whole entry): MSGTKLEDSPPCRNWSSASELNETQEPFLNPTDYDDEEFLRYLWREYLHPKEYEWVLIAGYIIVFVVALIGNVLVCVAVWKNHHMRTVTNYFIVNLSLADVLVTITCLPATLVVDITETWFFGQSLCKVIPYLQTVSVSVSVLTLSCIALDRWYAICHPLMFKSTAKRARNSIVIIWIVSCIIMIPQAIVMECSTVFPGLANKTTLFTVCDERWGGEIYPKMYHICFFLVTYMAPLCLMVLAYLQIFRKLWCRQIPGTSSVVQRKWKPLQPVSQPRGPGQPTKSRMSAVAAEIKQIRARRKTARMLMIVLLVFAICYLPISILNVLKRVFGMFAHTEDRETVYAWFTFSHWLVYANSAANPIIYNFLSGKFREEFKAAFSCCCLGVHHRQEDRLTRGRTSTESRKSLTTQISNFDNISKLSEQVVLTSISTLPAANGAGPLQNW
Procedure, shortened: as §1

[1] = CHO cells expressing human orexin-1 receptor, FLIPR, 3 nM orexin-A, geometric mean if determined several times
[2] = CHO cells expressing human orexin-2 receptor, FLIPR, 3 nM orexin-A, geometric mean if determined several times

SMILES: Cc1ccc(-n2nccn2)c(C(=O)N2CCC[C@@]2(C)c2nc(-c3cccc(Cl)c3C)no2)c1 [Example 541, {(S)-2-[3-(3-Chloro-2-methyl-phenyl)-[1,2,4]oxadiazol-5-yl]-2-methyl-pyrrolidin-1-yl}-(5-methyl-2-[1,2,3]triazol-2-yl-phenyl)-methanone]
- IC50 (orexin-1; [1]): 104 nM
- IC50 (human orexin-2 receptor; [2]): 114 nM

SMILES: Cc1c(Cl)cccc1-c1noc([C@@H]2CCCN2C(=O)c2ccccc2-c2ccccc2)n1 [compound 268]
- IC50 (orexin-1; [1]): 233 nM
- IC50 (human orexin-2 receptor; [2]): 31 nM

SMILES: Cc1ccc(-n2nccn2)c(C(=O)N2CCC[C@H]2c2ncc(-c3ccccc3)o2)c1 [Example 461, (5-Methyl-2-[1,2,3]triazol-2-yl-phenyl)-[(S)-2-(5-phenyl-oxazol-2-yl)-pyrrolidin-1-yl]-methanone]
- IC50 (orexin-1; [1]): 115 nM
- IC50 (human orexin-2 receptor; [2]): 465 nM

SMILES: Cc1ccc(C)c(-c2nc([C@@H]3CCCN3C(=O)c3cc(Cl)ccc3-n3nccn3)no2)c1 [compound 396]
- IC50 (orexin-1): 134 nM
- IC50 (human orexin-2 receptor): 15 nM

SMILES: Cc1ccc(-n2nccn2)c(C(=O)N2CCC[C@H]2c2nc(-c3ccc4c(c3)OC(F)(F)O4)no2)c1 [compound 19, {(S)-2-[3-(2,2-Difluoro-benzo[1,3]dioxol-5-yl)-[1,2,4]oxadiazol-5-yl]-pyrrolidin-1-yl}-(5-methyl-2-[1,2,3]triazol-2-yl-phenyl)-methanone]
- IC50 (orexin-1; [1]): 1860 nM
- IC50 (human orexin-2 receptor; [2]): 652 nM

SMILES: Cc1ccc(-c2ccccn2)c(C(=O)N2CCC[C@H]2c2nc(-c3cccc(Cl)c3C)no2)c1 [compound 90]
- IC50 (orexin-1; [1]): 137 nM
- IC50 (human orexin-2 receptor; [2]): 25 nM

SMILES: Cc1ccc(-n2nccn2)c(C(=O)N2CCC[C@H]2c2noc(-c3cccc(F)c3C)n2)c1 [compound 335, {(S)-2-[5-(3-Fluoro-2-methyl-phenyl)-[1,2,4]oxadiazol-3-yl]-pyrrolidin-1-yl}-(5-methyl-2-[1,2,3]triazol-2-yl-phenyl)-methanone]
- IC50 (orexin-1; [1]): 65 nM
- IC50 (human orexin-2 receptor; [2]): 4 nM

SMILES: COc1ccccc1-c1nnc([C@@H]2CCCN2C(=O)c2cc(C)c(C)cc2-n2nccn2)[nH]1 [compound 466, (4,5-Dimethyl-2-[1,2,3]triazol-2-yl-phenyl)-{(S)-2-[5-(2-methoxy-phenyl)-4H-[1,2,4]triazol-3-yl]-pyrrolidin-1-yl}-methanone]
- IC50 (orexin-1; [1]): 26 nM
- IC50 (human orexin-2 receptor; [2]): 69 nM

SMILES: COc1cc(C(=O)N2CCC[C@H]2c2nnc(-c3cccc(F)c3OC)[nH]2)c(-n2nccn2)cc1Cl [compound 472]
- IC50 (orexin-1; [1]): 19 nM
- IC50 (human orexin-2 receptor; [2]): 2 nM

SMILES: Cc1ccc(-n2nccn2)c(C(=O)N2CCC[C@H]2c2nc(-c3ccccc3OC(F)F)no2)c1 [compound 33, {(S)-2-[3-(2-Difluoromethoxy-phenyl)-[1,2,4]oxadiazol-5-yl]-pyrrolidin-1-yl}-(5-methyl-2-[1,2,3]triazol-2-yl-phenyl)-methanone]
- IC50 (orexin-1; [1]): 62 nM
- IC50 (human orexin-2 receptor; [2]): 9 nM

SMILES: Cc1cc(C)cc(-c2cc([C@@H]3CCCN3C(=O)c3cc(C)ccc3-n3nccn3)on2)c1 [compound 423, {(S)-2-[3-(3,5-Dimethyl-phenyl)-isoxazol-5-yl]-pyrrolidin-1-yl}-(5-methyl-2-[1,2,3]triazol-2-yl-phenyl)-methanone]
- IC50 (orexin-1; [1]): 81 nM
- IC50 (human orexin-2 receptor; [2]): 39 nM

SMILES: Cc1c(Cl)cccc1-c1noc([C@@H]2CCCN2C(=O)c2cc(C#N)ccc2-n2nccn2)n1 [compound 276]
- IC50 (orexin-1; [1]): 762 nM
- IC50 (human orexin-2 receptor; [2]): 243 nM

SMILES: COc1cc(C(=O)N2CCC[C@H]2c2nc(-c3cccc(F)c3OC)no2)c(-n2nccn2)cc1F [compound 206, {(S)-2-[3-(3-Fluoro-2-methoxy-phenyl)-[1,2,4]oxadiazol-5-yl]-pyrrolidin-1-yl}-(4-fluoro-5-methoxy-2-[1,2,3]triazol-2-yl-phenyl)-methanone]
- IC50 (orexin-1; [1]): 409 nM
- IC50 (human orexin-2 receptor; [2]): 10 nM

SMILES: COc1c(F)cccc1-c1nc([C@@H]2CCCN2C(=O)c2ccc(C)cc2-n2nccn2)no1 [compound 338, {(S)-2-[5-(3-Fluoro-2-methoxy-phenyl)-[1,2,4]oxadiazol-3-yl]-pyrrolidin-1-yl}-(4-methyl-2-[1,2,3]triazol-2-yl-phenyl)-methanone]
- IC50 (orexin-1; [1]): 27 nM
- IC50 (human orexin-2 receptor; [2]): 4 nM

SMILES: CCOc1c(F)cccc1-c1noc([C@@H]2CCCN2C(=O)c2cc(C)c(C)cc2-n2nccn2)n1 [compound 290, (4,5-Dimethyl-2-[1,2,3]triazol-2-yl-phenyl)-{(S)-2-[3-(2-ethoxy-3-fluoro-phenyl)-[1,2,4]oxadiazol-5-yl]-pyrrolidin-1-yl}-methanone]
- IC50 (orexin-1; [1]): 9 nM
- IC50 (human orexin-2 receptor; [2]): 5 nM

SMILES: COc1ccc(C)c(-c2nc([C@@H]3CCCN3C(=O)c3cc(OC)c(C)cc3-n3nccn3)no2)c1 [compound 386, {(S)-2-[5-(5-Methoxy-2-methyl-phenyl)-[1,2,4]oxadiazol-3-yl]-pyrrolidin-1-yl}-(5-methoxy-4-methyl-2-[1,2,3]triazol-2-yl-phenyl)-methanone]
- IC50 (orexin-1; [1]): 118 nM
- IC50 (human orexin-2 receptor; [2]): 7 nM

SMILES: O=C(c1cc(F)ccc1-c1ccn[nH]1)N1CCC[C@H]1c1nc(-c2ccccc2OC(F)(F)F)no1 [compound 167, [5-Fluoro-2-(2H-pyrazol-3-yl)-phenyl]-{(S)-2-[3-(2-trifluoromethoxy-phenyl)-[1,2,4]oxadiazol-5-yl]-pyrrolidin-1-yl}-methanone]
- IC50 (orexin-1; [1]): 114 nM
- IC50 (human orexin-2 receptor; [2]): 43 nM

SMILES: COc1cc(C(=O)N2CCC[C@H]2c2nc(-c3cccc(F)c3OC)no2)c(-n2nccn2)cc1Cl [compound 282]
- IC50 (orexin-1; [1]): 44 nM
- IC50 (human orexin-2 receptor; [2]): 1 nM

SMILES: CCc1ccccc1-c1nnc([C@@H]2CCCN2C(=O)c2cc(C)ccc2-n2nccn2)o1 [Example 452, {(S)-2-[5-(2-Ethyl-phenyl)-[1,3,4]oxadiazol-2-yl]-pyrrolidin-1-yl}-(5-methyl-2-[1,2,3]triazol-2-yl-phenyl)-methanone]
- IC50 (orexin-1; [1]): 249 nM
- IC50 (human orexin-2 receptor; [2]): 211 nM

SMILES: COc1cc(C(=O)N2CCC[C@H]2c2cc(-c3cccc(Cl)c3C)on2)c(-n2nccn2)cc1C [compound 433]
- IC50 (orexin-1; [1]): 19 nM
- IC50 (human orexin-2 receptor; [2]): 1 nM

SMILES: Cc1c(Cl)cccc1-c1noc([C@@H]2CCCN2C(=O)c2cc(F)ccc2-n2nccn2)n1 [compound 104]
- IC50 (orexin-1; [1]): 1030 nM
- IC50 (human orexin-2 receptor): 38 nM

SMILES: CCOc1c(F)cccc1-c1noc([C@@H]2CCCN2C(=O)c2cc(C)ccc2-n2nccn2)n1 [compound 56, {(S)-2-[3-(2-Ethoxy-3-fluoro-phenyl)-[1,2,4]oxadiazol-5-yl]-pyrrolidin-1-yl}-(5-methyl-2-[1,2,3]triazol-2-yl-phenyl)-methanone]
- IC50 (orexin-1; [1]): 16 nM
- IC50 (human orexin-2 receptor; [2]): 7 nM

SMILES: Cc1ccc(-n2nccn2)c(C(=O)N2CCC[C@H]2c2nc(-c3cnn(C)c3)no2)c1 [compound 60, {(S)-2-[3-(1-Methyl-1H-pyrazol-4-yl)-[1,2,4]oxadiazol-5-yl]-pyrrolidin-1-yl}-(5-methyl-2-[1,2,3]triazol-2-yl-phenyl)-methanone]
- IC50 (orexin-1; [1]): > 1420 nM
- IC50 (human orexin-2 receptor; [2]): 419 nM

SMILES: CCOc1ncccc1-c1nc([C@@H]2CCCN2C(=O)c2cc(C)c(C)cc2-n2nccn2)no1 [compound 331, (4,5-Dimethyl-2-[1,2,3]triazol-2-yl-phenyl)-{(S)-2-[5-(2-ethoxy-pyridin-3-yl)-[1,2,4]oxadiazol-3-yl]-pyrrolidin-1-yl}-methanone]
- IC50 (orexin-1; [1]): 1 nM
- IC50 (human orexin-2 receptor; [2]): 0.5 nM

SMILES: Cc1ccc(-n2nccn2)c(C(=O)N2CCC[C@H]2c2cnc(-c3cccc(Cl)c3C)[nH]2)c1 [compound 521]
- IC50 (orexin-1; [1]): 2510 nM
- IC50 (human orexin-2 receptor; [2]): 681 nM

SMILES: O=C(c1cc(OC(F)(F)F)ccc1-n1nccn1)N1CCC[C@H]1c1nc(-c2ccccc2OC(F)(F)F)no1 [compound 150, (2-[1,2,3]Triazol-2-yl-5-trifluoromethoxy-phenyl)-{(S)-2-[3-(2-trifluoromethoxy-phenyl)-[1,2,4]oxadiazol-5-yl]-pyrrolidin-1-yl}-methanone]
- IC50 (orexin-1; [1]): 457 nM
- IC50 (human orexin-2 receptor; [2]): 341 nM

SMILES: Cc1ccc(-n2nccn2)c(C(=O)N2CCC[C@H]2c2nc(-c3cccc4cc[nH]c34)no2)c1 [compound 46, {(S)-2-[3-(1H-Indol-7-yl)-[1,2,4]oxadiazol-5-yl]-pyrrolidin-1-yl}-(5-methyl-2-[1,2,3]triazol-2-yl-phenyl)-methanone]
- IC50 (orexin-1; [1]): 4 nM
- IC50 (human orexin-2 receptor; [2]): 9 nM

SMILES: Cc1ccc(C(=O)N2CCC[C@H]2c2cnc(-c3cccc(Cl)c3C)[nH]2)c(-n2nccn2)c1 [compound 522]
- IC50 (orexin-1): 2110 nM
- IC50 (human orexin-2 receptor): 367 nM

SMILES: Cc1ccc(-n2nccn2)c(C(=O)N2CCC[C@H]2c2nc(-c3cn(C)c4ncccc34)no2)c1 [compound 51, {(S)-2-[3-(1-Methyl-1H-pyrrolo[2,3-b]pyridin-3-yl)-[1,2,4]oxadiazol-5-yl]-pyrrolidin-1-yl}-(5-methyl-2-[1,2,3]triazol-2-yl-phenyl)-methanone]
- IC50 (orexin-1; [1]): 15 nM
- IC50 (human orexin-2 receptor; [2]): 11 nM

SMILES: COc1ccc(C)c(-c2nc([C@@H]3CCCN3C(=O)c3cc(OC)c(Cl)cc3-n3nccn3)no2)c1 [compound 353]
- IC50 (orexin-1; [1]): 54 nM
- IC50 (human orexin-2 receptor; [2]): 5 nM

SMILES: Cc1ccc(-n2nccn2)c(C(=O)N2CCC[C@H]2c2nc(-c3cccc(OC(F)F)c3)no2)c1 [compound 43, {(S)-2-[3-(3-Difluoromethoxy-phenyl)-[1,2,4]oxadiazol-5-yl]-pyrrolidin-1-yl}-(5-methyl-2-[1,2,3]triazol-2-yl-phenyl)-methanone]
- IC50 (orexin-1; [1]): 284 nM
- IC50 (human orexin-2 receptor; [2]): 23 nM

SMILES: COc1ccc(-n2nccn2)c(C(=O)N2CCC[C@H]2c2nc(-c3cccc(Cl)c3C)no2)c1 [compound 100]
- IC50 (orexin-1): 92 nM
- IC50 (human orexin-2 receptor; [2]): 8 nM

SMILES: Cc1ccc(-n2nccn2)c(C(=O)N2CCC[C@H]2c2noc(-c3n[nH]c4ccccc34)n2)c1 [compound 312, {(S)-2-[5-(1H-Indazol-3-yl)-[1,2,4]oxadiazol-3-yl]-pyrrolidin-1-yl}-(5-methyl-2-[1,2,3]triazol-2-yl-phenyl)-methanone]
- IC50 (orexin-1; [1]): 204 nM
- IC50 (human orexin-2 receptor; [2]): 89 nM

SMILES: COc1cc(C)cc(-c2nc([C@@H]3CCCN3C(=O)c3cc(C)c(C)cc3-n3nccn3)no2)c1 [compound 382, (4,5-Dimethyl-2-[1,2,3]triazol-2-yl-phenyl)-{(S)-2-[5-(3-methoxy-5-methyl-phenyl)-[1,2,4]oxadiazol-3-yl]-pyrrolidin-1-yl}-methanone]
- IC50 (orexin-1; [1]): 10 nM
- IC50 (human orexin-2 receptor; [2]): 4 nM
